According to patent publication US10030016B2 (Sunesis Pharmaceuticals, Inc., priority 2009, dated 2018):
Structures can show the parent of a compound that is named as a salt. Where two headings read alike, the source gives them in different places.

Assays:
PDK1 = PDK1 (Homo sapiens (Human), UniProt O15530); assay: PDK1 kinase assay (coupled PDK1/AKT/FAM-crosstide assay, IMAP fluorescence polarization); type: biochemical
Procedure, shortened: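 GST-tagged human PDK1 (aa 51-359, 0.75 nM) from insect cells activated unphosphorylated GST-AKT2 (aa 140-467–PIFtide fusion, 10 nM), which phosphorylated 100 nM FAM-crosstide; 40 μM ATP, pH 7.2 Tris/MgCl2, 30 min at 25° C. IMAP fluorescence polarization read-out; ΔmP versus compound concentration fitted with a 4-parameter curve.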

[1] = system: phospho-akt (Thr308) in PC-3 cells; assay: Inhibition of phospho-akt (Thr308) in PC-3 cells, MSD phospho-akt 308 ELISA kit; type: cell-based; conditions: Homo sapiens, 2 hours, no serum, read-out: EC50
Procedure, shortened: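 Electrochemiluminescent MSD ELISA of Thr308-phosphorylated Akt after a 2 h serum-free compound exposure of PC-3 cells (15,000/well, plated overnight). Controls: DMSO (high), 5 μM wortmannin (low). Lysate binding overnight at 4 °C; detection antibody 1 h at room temperature.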

[2] = inhibition of P308 Akt in PC-3 cells using MSD
[3] = inhibition of phospo-PDK1 in vitro
[4] = inhibition of P308 Akt in PC-3 cells, MSD

Chain of PDK1 (O15530 51-359): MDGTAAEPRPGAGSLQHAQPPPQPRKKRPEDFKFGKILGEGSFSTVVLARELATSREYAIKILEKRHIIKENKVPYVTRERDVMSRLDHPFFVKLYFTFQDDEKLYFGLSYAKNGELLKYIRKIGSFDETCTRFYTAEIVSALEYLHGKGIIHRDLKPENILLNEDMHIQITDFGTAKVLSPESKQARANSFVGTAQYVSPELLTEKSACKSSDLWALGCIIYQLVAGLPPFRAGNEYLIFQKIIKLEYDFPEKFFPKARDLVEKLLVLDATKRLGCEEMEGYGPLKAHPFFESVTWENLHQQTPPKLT

Row | SMILES | IC50 (PDK1; inhibition of PDK1 in vitro) [nM] | EC50 [1, 2] [nM] | IC50 (PDK1; [3]) [nM] | EC50 [1, 4] [nM]
1 | O=C(NCc1ccc(F)c(F)c1)c1cccnc1NCc1ccc(-c2ccn3ncnc3c2)s1 [Example 8.14.4, N-(3,4-difluorobenzyl)-2-({[5-([1,2,4]triazolo [1,5-a]pyridin-7-yl)thiophen-2-yl]methyl}amino)pyridine-3-carboxamide] |  |  | 1000 to 5000 | > 10000
2 | Cn1cnc2cnc(-c3ccc(CNc4nc5c(cc4C(=O)NCc4ccc(F)c(F)c4)CCC5)s3)cc21 [Example 8.15.2, N-(3,4-difluorobenzyl)-2-({[5-(1-methyl-1H-imidazo[4,5-c]pyridin-6-yl)thiophen-2-yl]methyl}amino)-6,7-dihydro-5H-cyclopenta[b] pyridine-3-carboxamide] |  |  | > 5000 | > 10000
3 | Nc1n[nH]c2ncc(-c3ccc(CNc4ncc(C(F)(F)F)cc4C(=O)NCc4cccc(Cl)c4)cc3)cc12 [Example 281, 2-(4-(3-amino-1H-pyrazolo [3,4-b]pyridin-5-yl)benzylamino)-N-(3-chlorobenzyl)-5-(trifluoromethyl)nicotinamide] | < 100 | < 1000 |  | 
4 | Nc1n[nH]c2ncc(-c3ccc(CNc4ncc(C(F)(F)F)cc4-c4nc5cc(F)ccc5[nH]4)cc3)cc12 [Example 349, 5-(4-((3-(5-fluoro-1H-benzo[d]imidazol-2-yl)-5-(trifluoromethyl)pyridin-2-ylamino)methyl)phenyl)-1H-pyrazolo[3,4-b] pyridin-3-amine] | > 5000 | > 10000 |  | 
5 | C[C@H](NC(=O)c1cccnc1NCc1ccc(-c2ccc3ncc4[nH]c(=O)n(C)c4c3c2)s1)c1ccc(F)cc1 [Example 2.16, (S)-N-(1-(4-fluorophenyl)ethyl)-2-(((5-(1-methyl-2-oxo-2,3-dihydro-1H-imidazo[4,5-c]quinolin-8-yl)thiophen-2-yl)methyl)amino) nicotinamide] |  |  | > 5000 | > 10000
6 | CCOc1ccnc(NCc2ccc(-c3ccc4ncnc(N)c4c3)s2)c1C(=O)N[C@@H](C)c1ccc(F)cc1 [Ex. 7.7, (S)-2-(((5-(4-aminoquinazolin-6-yl)thiophen-2-yl)methyl)amino)-N-(1-(4-fluoro-phenyl)ethyl)-4-ethoxynicotinamide] |  |  | 100 to 1000 | > 10000
7 | Nc1ncnc2ccc(-c3ccc(CNc4ncccc4C(=O)NCc4ccc(F)cc4)s3)cc12 [Example 3.7, 2-({[5-(4-aminoquinazolin-6-yl)thiophen-2-yl]methyl}amino)-N-(4-fluorobenzyl)pyridine-3-carboxamide (TFA salt)] |  |  | < 100 | < 1000
8 | Nc1ncnc2ccc(-c3ccc(CNc4ncccc4C(=O)Nc4ccc(F)cc4)s3)cc12 [Example 3.47, 2-({[5-(4-aminoquinazolin-6-yl)thiophen-2-yl]methyl}amino)-N-(4-fluorophenyl)pyridine-3-carboxamide (TFA salt)] |  |  | 100 to 1000 | < 1000
9 | Nc1ncnc2ccc(-c3ccc(CNc4ncccc4C(=O)N(Cc4cncc(F)c4)Cc4cncc(F)c4)s3)cc12 [Example 3.64, 2-(((5-(4-aminoquinazolin-6-yl)thiophen-2-yl)methyl)amino)-N,N-bis((5-fluoropyridin-3-yl)methyl)nicotinamide (TFA salt)] |  |  | > 5000 | 1000 to 10000
10 | O=C(Nc1ccc(F)cc1)c1cc(C(F)(F)F)cnc1NCc1ccc(-c2cnc3[nH]ncc3c2)cc1 [Example 156, 2-(4-(1H-pyrazolo[3,4-b]pyridin-5-yl)benzylamino)-N-(4-fluorophenyl)-5-(trifluoromethyl)nicotinamide] | < 100 | < 1000 |  | 
11 | Nc1ncnc2ccc(-c3csc(CNc4ncccc4C(=O)NCc4ccc(F)c(F)c4)c3)cc12 [Ex. 6.14, 2-({[4-(4-aminoquinazolin-6-yl)thiophen-2-yl]methyl}amino)-N-(3,4-difluoro-benzyl) pyridine-3-carboxamide] |  |  | < 100 | 1000 to 10000
12 | Cn1nc(Nc2ncccc2C(=O)NCc2ccc(F)c(F)c2)c2cc(-c3c[nH]c4ncccc34)ccc21 [Example 14.1, N-(3,4-difluorobenzyl)-2-(1-methyl-5-(1H-pyrrolo[2,3-b]pyridin-3-yl)-1H-indazol-3-ylamino)nicotinamide] |  |  | < 100 | 1000 to 10000

The remaining lines, values ahead:

Row | IC50 (PDK1; inhibition of PDK1 in vitro) [nM] | EC50 [1, 2] [nM] | IC50 (PDK1; [3]) [nM] | EC50 [1, 4] [nM] | SMILES
13 | < 100 | < 1000 |  |  | CNC(=O)c1cc(-c2ccc(CNc3ncc(C#N)cc3C(=O)N[C@@H](C)c3ccc(F)cc3)cc2)cnc1N [Example 203, (S)-2-amino-5-(4-((5-cyano-3-(1-(4-fluorophenyl)ethylcarbamoyl)pyridin-2-ylamino)methyl)phenyl)-N-methylnicotinamide]
14 | < 100 | < 1000 |  |  | C[C@H](NC(=O)c1nc(C#N)cnc1NCc1ccc(-c2cnc3[nH]c(=O)[nH]c3c2)cc1)c1ccc(F)c(F)c1 [Example 363, (S)-6-cyano-N-(1-(3,4-difluorophenyl)ethyl)-3-(4-(2-oxo-2,3-dihydro-1H-imidazo[4,5-b]pyridin-6-yl)benzylamino)-pyrazine-2-carboxamide]
15 | < 100 | < 1000 |  |  | C[C@H](NC(=O)c1cc(C#N)cnc1NCc1ccc(-c2cnc(N)c(C(=O)NCCN(C)C)n2)cc1)c1ccc(F)cc1 [Example 212]
16 | < 100 | 1000 to 10000 |  |  | C[C@H](NC(=O)c1cc(C#N)cnc1NCc1ccc(-c2cnc(N)cn2)c(F)c1)c1ccc(F)cc1 [Example 131, (S)-2-(4-(5-aminopyrazin-2-yl)-3-fluorobenzylamino)-5-cyano-N-(1-(4-fluorophenyl)ethyl) nicotinamide]
17 | < 100 | < 1000 |  |  | C[C@H](NC(=O)c1cc(C#N)cnc1NCc1ccc(-c2cnc(N)c(NCC(O)CO)n2)cc1)c1ccc(F)cc1 (stereo partly drawn) [Example 243, 2-{4-[5-Amino-6-(2,3-dihydroxy-propylamino)-pyrazin-2-yl]-benzylamino}-5-cyano-N-[(S)-1-(4-fluoro-phenyl)-ethyl]-nicotinamide]
18 | < 100 | < 1000 |  |  | C[C@H](NC(=O)c1nc(C#N)cnc1NCc1ccc(-c2cnc3[nH]nc(N)c3c2)nc1)c1ccc(F)c(F)c1 [Example 58, (S)-3-(((6-(3-amino-1H-pyrazolo[3,4-b]pyridin-5-yl)pyridin-3-yl)methyl)amino)-6-cyano-N-(1-(3,4-difluorophenyl)ethyl) pyrazine-2-carboxamide]
19 |  |  | 100 to 1000 | < 1000 | C[C@H](NC(=O)c1cc(I)cnc1NCc1ccc(-c2ccc3ncnc(N)c3c2)s1)c1ccc(F)c(F)c1 [Ex. 7.21.1, 2-({[5-(4-aminoquinazolin-6-yl)thiophen-2-yl]methyl}amino)-N-[(1S)-1-(3,4-difluorophenyl)ethyl]-5-iodopyridine-3-carboxamide]
20 |  |  | < 100 | < 1000 | Nc1ncnc2ccc(-c3ccc(CNc4ncc(Br)cc4C(=O)NCc4ccc(F)c(F)c4)s3)cc12 [Ex. 8.9, 2-({[5-(4-aminoquinazolin-6-yl)thiophen-2-yl]methyl}amino)-N-(3,4-difluorobenzyl)-5-bromopyridine-3-carboxamide]
21 |  |  | 100 to 1000 | > 10000 | CC(C)c1cnc(NCc2ccc(-c3ccc4ncnc(N)c4c3)s2)c(C(=O)NCc2ccc(F)c(F)c2)n1 [Ex. 10.4, 3-({[5-(4-aminoquinazolin-6-yl)thiophen-2-yl]methyl}amino)-N-(3,4-difluorobenzyl)-6-(propan-2-yl)pyrazine-2-carboxamide]
22 | < 100 | 1000 to 10000 |  |  | N#Cc1cnc(NCc2ccc(-c3ccc(N)nc3)cc2)c(C(=O)NCc2ccc(F)c(F)c2)n1 [Example 372, 3-(4-(6-aminopyridin-3-yl)benzylamino)-6-cyano-N-(3,4-difluorobenzyl)pyrazine-2-carboxamide]
23 | < 100 | 1000 to 10000 |  |  | C[C@H](NC(=O)c1cc(C#N)cnc1NCc1ccc(-c2cnc(Nc3ccn(C)n3)nc2)cc1)c1ccc(F)cc1 [Example 125, (S)-5-cyano-N-(1-(4-fluorophenyl)ethyl)-2-(4-(2-(1-methyl-1H-pyrazol-3-ylamino)pyrimidin-5-yl)benzylamino) nicotinamide]
24 | < 100 | 1000 to 10000 |  |  | C[C@H](NC(=O)c1cc(C#N)cnc1NCc1ccc(-c2cnc(N)c(CO)c2)cc1)c1ccc(F)cc1 [Example 136, (S)-2-(4-(6-amino-5-(hydroxymethyl)pyridin-3-yl)benzylamino)-5-cyano-N-(1-(4-fluorophenyl)ethyl)nicotinamide]
25 |  |  | < 100 | < 1000 | C[C@H](NC(=O)c1cccnc1NCc1ccc(-c2cnc3[nH]ncc3c2)cc1)c1ccc(F)c(F)c1 [Example 2.39, N-[(S)-1-(3,4-Difluoro-phenyl)-ethyl]-2-[4-(1H-pyrazolo[3,4-b]pyridin-5-yl)benzyl-amino]-nicotinamide]
26 | < 100 | 1000 to 10000 |  |  | Nc1n[nH]c2ncc(-c3ccc(CNc4ncc(C(F)(F)F)cc4C(=O)NC4CCCC4)cc3)cc12 [Example 302, 2-(4-(3-amino-1H-pyrazolo [3,4-b]pyridin-5-yl)benzylamino)-N-cyclopentyl-5-(trifluoromethyl)nicotinamide]
27 | < 100 | 1000 to 10000 |  |  | C[C@H](NC(=O)c1nc(C#N)cnc1NCc1ccc(-c2cnc(N)c(C(=O)N3CCNCC3)n2)cc1)c1ccc(F)c(F)c1 [Example 219, 3-{4-[5-Amino-6-(piperazine-1-carbonyl)-pyrazin-2-yl]-benzylamino}-6-cyano-pyrazine-2-carboxylic acid [(S)-1-(3,4-difluoro-phenyl)-ethyl]-amide]
28 |  |  | < 100 | 1000 to 10000 | C[C@H](NC(=O)c1cccnc1NCc1ccc(-c2ccc3ncnc(N4CC(CO)C4)c3c2)s1)c1ccc(F)c(F)c1 [Example 4.38]
